# pIC50: −log10 of the molar value. *1 amine or outer side, *2 acyl side, *3 side chain or, on linkers, in order; H or OH if unused. Where a SMILES comes first, the peptide text is derived from it. [ ]: non-standard residue; d: D form. Ahppa(3S,4S) = O=C(C[C@H](O)[C@H](Cc1ccccc1)N[*:1])[*:2]; dNMeF = CN[C@H](Cc1ccccc1)C(=O)O; NMeQ = CN[C@@H](CCC(N)=O)C(=O)O; Lac = C[C@H](O)C(=O)O
# Test system: KB
# Assay: Cytotoxicity against human KB cells
# Format: functional, cell-based
smiles,measurement,value
"COC(=O)[C@@H]1CCCN1C(=O)[C@@H](Cc1ccccc1)N(C)C(=O)[C@H](C)NC(=O)[C@H](CC(C)C)NC(=O)C[C@H](O)[C@H](Cc1ccccc1)NC(=O)[C@H](CCC(N)=O)N(C)C(=O)[C@@H](NC(=O)[C@H](C)O)C(C)C [TASIAMIDE B] (H-[Lac]V[NMeQ][Ahppa(3S,4S)]LA[dNMeF]P-OMe)",pIC50,6.10

# From ChEMBL document CHEMBL1146560, “The isolation and structure elucidation of Tasiamide B, a 4-amino-3-hydroxy-5-phenylpentanoic acid containing peptide from the marine Cyanobacterium Symploca sp” (J Nat Prod, 2003)
